Measurements as given in patent publication US9210927B2, “Pesticidal compositions and processes related thereto” (Dow AgroSciences LLC, priority 2013, dated 2015).

Experiments:
CEW (Helicoverpa zea) = assay: Bioassays on Corn Earworm (CEW), 128-well diet tray assay; type: in vivo; conditions: Helicoverpa zea, 168 h; percent mortality, second instar larvae, 50 μg/cm^2 on artificial diet, five to seven days, 25° C.; read-out: CEW Rating
Procedure: (§1) Bioassays on Beet Armyworm (“BAW”) and Corn Earworm (“CEW”) and Cabbage Looper (“CL”)
(§2) Certain molecules disclosed in this document were tested against BAW and CEW and CL using procedures described in the following examples. In the reporting of the results, the “BAW & CEW & CL Rating Table” was used (See Table Section).
Bioassays on CEW (Helicoverpa zea)
Bioassays on CEW were conducted using a 128-well diet tray assay. one to five second instar CEW larvae were placed in each well (3 mL) of the diet tray that had been previously filled with 1 mL of artificial diet to which 50 μg/cm^2 of the test compound (dissolved in 50 μL of 90:10 acetone-water mixture) had been applied (to each of eight wells) and then allowed to dry. Trays were covered with a clear self-adhesive cover, and held at 25° C., 14:10 light-dark for five to seven days. Percent mortality was recorded for the larvae in each well; activity in the eight wells was then averaged. The results are indicated in the table entitled “Table 3: Assay Results” (See Table Section).

BAW (Spodoptera exigua) = assay: Bioassays on Beet Armyworm (BAW), 128-well diet tray assay; type: in vivo; conditions: Spodoptera exigua, 168 h, read-out: BAW Rating
Procedure: as §1, §2
Bioassays on BAW (Spodoptera exigua)
Bioassays on BAW were conducted using a 128-well diet tray assay. one to five second instar BAW larvae were placed in each well (3 mL) of the diet tray that had been previously filled with 1 mL of artificial diet to which 50 μg/cm^2 of the test compound (dissolved in 50 μL of 90:10 acetone-water mixture) had been applied (to each of eight wells) and then allowed to dry. Trays were covered with a clear self-adhesive cover, and held at 25° C., 14:10 light-dark for five to seven days. Percent mortality was recorded for the larvae in each well; activity in the eight wells was then averaged. The results are indicated in the table entitled “Table 3: Assay Results” (See Table Section).

Row | Structure (SMILES) | pest or weed control at 50 µg/cm2 (CEW (Helicoverpa zea)) | pest or weed control at 50 µg/cm2 (BAW (Spodoptera exigua))
1 | FC(F)(F)C(/C=C/c1ccc(-n2cncn2)c(Cl)c1)c1cc(Cl)cc(Cl)c1 (centres unmarked) [DC50] | 50 to 100% | 50 to 100%
2 | O=C(CNC(=S)c1ccc(/C=C/C(c2cc(Cl)c(Cl)c(Cl)c2)C(F)(F)F)cc1Br)NCC(F)(F)F (centres unmarked) [AC91, (E)-2-(2-Bromo-4-(4,4,4-trifluoro-3-(3,4,5-trichlorophenyl)but-1-en-1-yl)phenylthioamido)-N-(2,2,2-trifluoroethyl)acetamide] | 50 to 100% | 50 to 100%
3 | N#Cc1cc(/C=C/C(c2cc(Cl)cc(Cl)c2)C(F)(F)F)ccc1-n1cnc([N+](=O)[O-])n1 (centres unmarked) [DC37] | 50 to 100% | 50 to 100%
4 | O=C(NCc1ccc(/C=C/C(c2cc(Cl)c(Cl)c(Cl)c2)C(F)(F)F)cc1F)C1CC1 (centres unmarked) [CC28] | 50 to 100% | 50 to 100%
5 | Cc1cc(/C=C/C(c2cc(Cl)c(Cl)c(Cl)c2)C(F)(F)F)ccc1C(=O)NCc1ccc(Cl)nc1 (centres unmarked) [AC22] | 50 to 100% | 50 to 100%
6 | CONC(=O)CNC(=O)c1ccc(/C=C/C(c2cc(Cl)c(Cl)c(Cl)c2)C(F)(F)F)cc1Br (centres unmarked) [AC110] | 50 to 100% | 50 to 100%
7 | CCOC(=O)c1cc(/C=C/C(c2cc(Cl)cc(Cl)c2)C(F)(F)F)ccc1-n1cncn1 (centres unmarked) [DC60] | 50 to 100% | 50 to 100%
8 | N#CCN1CCC(NC(=O)c2ccc(/C=C/C(c3cc(Cl)c(Cl)c(Cl)c3)C(F)(F)F)cc2Br)CC1 (centres unmarked) [AC107] | 50 to 100% | 0 to 50%
9 | C=CCNC(=S)NCc1ccc(/C=C/C(c2cc(Cl)c(Cl)c(Cl)c2)C(F)(F)F)cc1Cl (centres unmarked) [CC38] | 50 to 100% | 50 to 100%
10 | Cc1cc(/C=C/C(c2cc(Cl)c(Cl)c(Cl)c2)C(F)(F)F)ccc1-n1cncn1 (centres unmarked) [DC63] | 50 to 100% | 50 to 100%
11 | O=C(Cc1ccc(Cl)nc1)NC1CCc2cc(/C=C/C(c3cc(Cl)c(F)c(Cl)c3)C(F)(F)F)ccc21 (centres unmarked) [BC9] | 50 to 100% | 50 to 100%
12 | C/C(=C\C(c1cc(Cl)cc(Cl)c1)C(F)(F)F)c1ccc(-n2cncn2)cc1 (centres unmarked) [DC68, (E)-1-(4-(4-(3,5-Dichlorophenyl)-5,5,5-trifluoropent-2-en-2-yl)phenyl)-1H-1,2,4-triazole] | 50 to 100% | 50 to 100%
13 | O=C(NC1CS(=O)(=O)C1)c1ccc(/C=C/C(c2cc(Cl)c(Cl)c(Cl)c2)C(F)(F)F)cc1C(F)(F)F (centres unmarked) [AC35] | 50 to 100% | 50 to 100%
14 | O=C(CNC(=O)c1ccc(/C=C/C(c2cc(Cl)c(F)c(Cl)c2)C(F)(F)F)cc1[N+](=O)[O-])NCC(F)(F)F (centres unmarked) [AC98] | 50 to 100% | 50 to 100%
15 | Cc1cc(/C=C/C(c2cc(Cl)c(F)c(Cl)c2)C(F)(F)F)ccc1C(=O)NCc1ccc(Cl)nc1 (centres unmarked) [AC38] | 50 to 100% | 50 to 100%
16 | Cc1cc(/C=C/C(c2cc(Cl)cc(Cl)c2)C(F)(F)F)ccc1C(=O)NCc1ccoc1 (centres unmarked) [AC20] | 50 to 100% | 50 to 100%
17 | CN(C)C(=O)NCc1ccc(/C=C/C(c2cc(Cl)c(Cl)c(Cl)c2)C(F)(F)F)cc1Cl (centres unmarked) [CC36, (E)-3-(2-Chloro-4-(4,4,4-trifluoro-3-(3,4,5-trichlorophenyl)but-1-en-1-yl)benzyl)-1,1-dimethylurea] | 50 to 100% | 50 to 100%
18 | O=C(CNC(=O)c1ccc(/C=C/C(c2ccc(F)c(Cl)c2)C(F)(F)F)cc1Br)NCC(F)(F)F (centres unmarked) [AC99] | 50 to 100% | 50 to 100%
19 | O=C(NC1CCc2cc(/C=C/C(c3cc(Cl)c(Cl)c(Cl)c3)C(F)(F)F)ccc21)C1CC1 (centres unmarked) [BC6] | 50 to 100% | 50 to 100%
20 | O=C(CC(F)(F)F)NNc1ccc(/C=C/C(c2cc(Cl)c(Cl)c(Cl)c2)C(F)(F)F)cc1 (centres unmarked) [CC51] | 50 to 100% | 50 to 100%

Row | Structure (SMILES) | pest or weed control at 50 µg/cm2 (CEW (Helicoverpa zea)) | pest or weed control at 50 µg/cm2 (BAW (Spodoptera exigua))
21 | FC(F)(F)C(/C=C/c1ccc(-n2cncn2)cc1Cl)c1cc(Cl)cc(Cl)c1 (centres unmarked) [DC67] | 50 to 100% | 50 to 100%
22 | C=CCNC(=O)CNC(=O)c1ccc(/C=C/C(c2cc(Cl)c(Cl)c(Cl)c2)C(F)(F)F)cc1Br (centres unmarked) [AC111] | 50 to 100% | 50 to 100%
23 | N#Cc1cc(/C=C/C(c2cc(Cl)c(Cl)c(Cl)c2)C(F)(F)F)ccc1-n1cnc(N)n1 (centres unmarked) [DC41, (E)-2-(3-Amino-1H-1,2,4-triazol-1-yl)-5-(4,4,4-trifluoro-3-(3,4,5-trichlorophenyl)but-1-en-1-yl)benzonitrile] | 50 to 100% | 50 to 100%
24 | COC(/C=C/c1ccc(-n2cncn2)cc1)(c1cc(Cl)cc(Cl)c1)C(F)(F)F (centres unmarked) [DC70, (E)-1-(4-(3-(3,5-Dichlorophenyl)-4,4,4-trifluoro-3-methoxybut-1-en-1-yl)phenyl)-1H-1,2,4-triazole] | 50 to 100% | 50 to 100%
25 | O=C(NCCc1ccc(Cl)nc1)c1ccc(/C=C/C(c2cc(Cl)c(Cl)c(Cl)c2)C(F)(F)F)cc1Br (centres unmarked) [AC113] | 50 to 100% | 0 to 50%
26 | CC(=O)Nc1ncn(-c2ccc(/C=C/C(c3cc(Cl)cc(Cl)c3)C(F)(F)F)cc2C#N)n1 (centres unmarked) [DC39] | 50 to 100% | 50 to 100%
27 | FC(F)(F)C(/C=C/c1ccc(-n2cncn2)cc1Cl)c1cc(Cl)c(Cl)c(Cl)c1 (centres unmarked) [DC66] | 50 to 100% | 50 to 100%
28 | CCc1cc(/C=C/C(c2cc(Cl)c(F)c(Cl)c2)C(F)(F)F)ccc1C(=O)NC1CS(=O)(=O)C1 (centres unmarked) [AC86] | 50 to 100% | 50 to 100%
29 | N#Cc1cc(/C=C\C(c2cc(Cl)c(F)c(Cl)c2)C(F)(F)F)ccc1-n1cncn1 (centres unmarked) [DC46] | 50 to 100% | 50 to 100%
30 | Cc1cc(/C=C/C(c2cc(Cl)cc(Cl)c2)C(F)(F)F)ccc1C(=S)NCc1ccc(Cl)nc1 (centres unmarked) [AC115, (E)-N-((6-Chloropyridin-3-yl)methyl)-4-(3-(3,5-dichlorophenyl)-4,4,4-trifluorobut-1-en-1-yl)-2-methylbenzothioamide] | 50 to 100% | 50 to 100%
31 | Cc1cc(/C=C/C(c2cc(Cl)cc(Cl)c2)C(F)(F)F)ccc1C(=O)NCc1ccccn1 (centres unmarked) [AC12] | 50 to 100% | 50 to 100%
32 | FC(F)(F)c1cc(C(/C=C/c2ccc(-n3cncn3)cc2)C(F)(F)F)cc(C(F)(F)F)c1 (centres unmarked) [DC16] | 50 to 100% | 50 to 100%
33 | N#Cc1cc(/C=C/C(c2cc(Cl)c(Cl)c(Cl)c2)C(F)(F)F)ccc1-n1cnc(NC(=O)C2CC2)n1 (centres unmarked) [DC43, (E)-N-(1-(2-Cyano-4-(4,4,4-trifluoro-3-(3,4,5-trichlorophenyl)but-1-en-1-yl)phenyl)-1H-1,2,4-triazol-3-yl)cyclopropanecarboxamide] | 50 to 100% | 50 to 100%
34 | FC(F)(F)C(/C=C/c1ccc(-n2cncn2)c(Cl)c1)c1cc(Cl)c(Cl)c(Cl)c1 (centres unmarked) [DC49] | 50 to 100% | 50 to 100%
35 | Cc1cc(/C=C/C(c2cc(Cl)cc(Cl)c2)C(F)(F)F)ccc1C(=O)NCC(=O)NC1CC1 (centres unmarked) [AC40] | 50 to 100% | 50 to 100%
36 | FC(F)(F)C(/C=C/c1ccc(-n2cncn2)cc1)c1cc(Cl)cc(Cl)c1 (centres unmarked) [DC1, (E)-1-(4-(3-(3,5-Dichlorophenyl)-4,4,4-trifluorobut-1-en-1-yl)phenyl)-1H-1,2,4-triazole] | 50 to 100% | 50 to 100%
37 | O=C(NC1CCNCC1)c1ccc(/C=C/C(c2cc(Cl)c(Cl)c(Cl)c2)C(F)(F)F)cc1Br (centres unmarked) [AC114, (E)-2-Bromo-N-(piperidin-4-yl)-4-(4,4,4-trifluoro-3-(3,4,5-trichlorophenyl)but-1-en-1-yl)benzamide] | 0 to 50% | 50 to 100%
38 | O=C(CC(F)(F)F)NCc1ccc(/C=C\C(c2cc(Cl)c(Cl)c(Cl)c2)C(F)(F)F)cc1 (centres unmarked) [CC54, (Z)-3,3,3-Trifluoro-N-(4-(4,4,4-trifluoro-3-(3,4,5-trichlorophenyl)but-1-en-1-yl)benzyl)propanamide] | 50 to 100% | 50 to 100%
39 | O=C(CNC(=O)c1ccc(/C=C\C(c2cc(Cl)c(Cl)c(Cl)c2)C(F)(F)F)cc1Br)NCC(F)(F)F (centres unmarked) [AC95, (Z)-2-Bromo-N-(2-oxo-2-((2,2,2-trifluoroethyl)amino)ethyl)-4-(4,4,4-trifluoro-3-(3,4,5-trichlorophenyl)but-1-en-1-yl)benzamide] | 50 to 100% | 50 to 100%
40 | O=C(CC(F)(F)F)NCc1ccc(/C=C/C(c2cc(Cl)cc(Cl)c2)C(F)(F)F)cc1 (centres unmarked) [CC3] | 50 to 100% | 50 to 100%
